One block for each molecule: values may come before it.
Columns and labels:
Format in all cases: biochemical
[1] = tested on: T1, 10 day estivated Otala lactea foot muscle GDH; experiment: NADH absorbance at […] nm, glutamate-oxidizing direction; details: no ADP, Tris-HCl pH 8.0
T1 construct: native enzyme purified from foot muscle of 10-day estivated snails on GTP-agarose; high-phosphate form, sites unknown

[2] = tested on: T2, control Otala lactea foot muscle GDH; experiment: as above; details: no ADP, Tris-HCl pH 8.0
T2 construct: native enzyme purified from foot muscle of active (control) snails on GTP-agarose; low-phosphate form, sites unknown

[3] = tested on: T1, 10 day estivated Otala lactea foot muscle GDH; experiment: NADH absorbance at […] nm, glutamate-synthesizing direction; details: inhibitor; suboptimal substrates 0.2 mM α-ketoglutarate, 0.15 mM NADH, 40 mM NH4Cl; HEPES pH 7.2
[4] = tested on: T2, control Otala lactea foot muscle GDH; experiment: as above; details: inhibitor; suboptimal substrates 0.2 mM α-ketoglutarate, 0.15 mM NADH, 40 mM NH4Cl; HEPES pH 7.2
[5] = tested on: T2, control Otala lactea foot muscle GDH; experiment: as above; details: activation constant (half-maximal activation, not association constant); suboptimal substrates 0.2 mM α-ketoglutarate, 0.15 mM NADH, 40 mM NH4Cl; HEPES pH 7.2
[6] = tested on: T1, 10 day estivated Otala lactea foot muscle GDH; experiment: NADH absorbance at […] nm, glutamate-oxidizing direction; details: activation constant (half-maximal activation, not association constant); suboptimal substrates 10 mM L-glutamate, 0.5 mM NAD+; Tris-HCl pH 8.0
[7] = tested on: T2, control Otala lactea foot muscle GDH; experiment: as above; details: activation constant (half-maximal activation, not association constant); suboptimal substrates 10 mM L-glutamate, 0.5 mM NAD+; Tris-HCl pH 8.0
[8] = tested on: T2, control Otala lactea foot muscle GDH; experiment: NADH absorbance at […] nm, glutamate-synthesizing direction; details: no ADP, 0.2 mM NADH, HEPES pH 7.2
[9] = tested on: T1, 10 day estivated Otala lactea foot muscle GDH; experiment: as above; details: no ADP; optimal co-substrates 100 mM NH4Cl, 0.2 mM NADH; HEPES pH 7.2
[10] = optimal co-substrate 50 mM L-glutamate
[11] = optimal co-substrate 1.5 mM NAD+

Km [1, 10]: 490 ± 20 µM
Km [2, 10]: 590 ± 80 µM
SMILES: NC(=O)c1ccc[n+]([C@@H]2O[C@H](COP(=O)(O)OP(=O)(O)OC[C@H]3O[C@@H](n4cnc5c(N)ncnc54)[C@H](O)[C@@H]3O)[C@@H](O)[C@H]2O)c1 [NAD^+]

IC50 [3]: 0.15 ± 0.02 µM
IC50 [4]: 0.34 ± 0.02 µM
SMILES: Nc1nc2c(ncn2[C@@H]2O[C@H](COP(=O)(O)OP(=O)(O)OP(=O)(O)O)[C@@H](O)[C@H]2O)c(=O)[nH]1 [GTP]

EC50 [5]: 270 ± 40 µM
SMILES: Nc1ncnc2c1ncn2[C@@H]1O[C@H](COP(=O)(O)O)[C@@H](O)[C@H]1O [AMP]

EC50 [6]: 3.5 ± 0.5 µM
EC50 [7]: 4.7 ± 0.7 µM
SMILES: Nc1ncnc2c1ncn2[C@@H]1O[C@H](COP(=O)(O)OP(=O)(O)O)[C@@H](O)[C@H]1O [ADP]

Km ([8]; optimal co-substrates 1 mM α-ketoglutarate): 63000 ± 2000 µM
SMILES: N [NH4 ^+]

Km [1, 11]: 840 ± 20 µM
Km [2, 11]: 900 ± 20 µM
SMILES: N[C@@H](CCC(=O)O)C(=O)O [L-glutamate]

IC50 [4]: 7000 ± 1000 µM
SMILES: Nc1ncnc2c1ncn2[C@@H]1O[C@H](COP(=O)(O)OP(=O)(O)OP(=O)(O)O)[C@@H](O)[C@H]1O [ATP]

Km [9]: 550 ± 50 µM
Km ([8]; optimal co-substrates 100 mM NH4Cl): 190 ± 30 µM
SMILES: O=C(O)CCC(=O)C(=O)O [α-ketoglutarate]

Source: PMC3318891, “Insights into the In Vivo Regulation of Glutamate Dehydrogenase from the Foot Muscle of an Estivating Land Snail” (Enzyme Research, 2012)
